According to US11629147B2, “Triazolo-pyrimidine compounds and uses thereof” (Dizal (Jiangsu) Pharmaceutical Co., Ltd., priority 2019, dated 2023):

Legend:
mA2a = mA2a (Mus musculus (Mouse), UniProt Q60613); experiment: cAMP inhibition assay in mA2a/CHO cells; type: cell-based; details: 10 μM adenosine, read-out: cAMP & FLIPR IC50 (nM) mA2a
Method: (§1) hA2a/CHO, hA2b/CHO and mA2a/CHO(Genscript) were plated at 5×10^3 cells/well into 384-well polystyrene plates at the day of experiment. Compounds were pre-incubated with cells for 30 min at 37° C., 5% CO2. Then 10 μM adenosine was added to the cells and incubated for 30 min at 37° C., 5% CO2. Detection reagent (CISBIO) was added and the plates were incubated for 60 min at room temperature. The signal was captured by Envision.

hA2a = hA2a (Homo sapiens (Human), UniProt P29274); experiment: cAMP inhibition assay in hA2a/CHO cells; type: cell-based; details: 10 μM adenosine, read-out: cAMP & FLIPR IC50 (nM) hA2a
Method: as §1
FLIPR™ and cAMP inhibition activities of exemplary compounds in different adenosine receptor over-expressing cell lines are shown in Table 4 below.

Sequence of mA2a (Q60613 whole entry): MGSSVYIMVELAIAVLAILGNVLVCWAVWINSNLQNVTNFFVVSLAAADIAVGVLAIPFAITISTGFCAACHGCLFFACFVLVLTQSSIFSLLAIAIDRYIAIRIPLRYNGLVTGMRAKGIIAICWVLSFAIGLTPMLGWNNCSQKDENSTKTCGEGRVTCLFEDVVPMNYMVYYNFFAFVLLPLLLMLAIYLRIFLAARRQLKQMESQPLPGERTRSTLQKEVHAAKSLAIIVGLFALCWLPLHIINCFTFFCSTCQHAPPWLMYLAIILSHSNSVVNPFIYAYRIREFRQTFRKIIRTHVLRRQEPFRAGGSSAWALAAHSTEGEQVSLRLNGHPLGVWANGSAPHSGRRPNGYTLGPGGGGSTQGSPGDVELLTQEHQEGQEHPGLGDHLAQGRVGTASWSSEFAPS
Sequence of hA2a (P29274 whole entry): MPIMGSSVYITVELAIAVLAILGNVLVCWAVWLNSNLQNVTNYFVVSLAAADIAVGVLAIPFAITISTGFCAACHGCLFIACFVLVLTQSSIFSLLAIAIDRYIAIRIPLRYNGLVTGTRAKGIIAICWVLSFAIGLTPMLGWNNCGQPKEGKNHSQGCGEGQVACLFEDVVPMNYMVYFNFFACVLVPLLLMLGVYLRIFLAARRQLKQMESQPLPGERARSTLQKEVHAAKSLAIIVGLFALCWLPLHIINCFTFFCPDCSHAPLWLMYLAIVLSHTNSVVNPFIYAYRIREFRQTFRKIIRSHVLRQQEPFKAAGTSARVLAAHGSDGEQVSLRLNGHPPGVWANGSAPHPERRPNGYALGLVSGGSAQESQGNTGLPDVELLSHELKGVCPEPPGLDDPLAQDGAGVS

SMILES: Cc1cnc2ccc(-c3c(-c4ccc(F)cc4)nc(N)n4nc(CC5CCOC5)nc34)cn12 (single isomer, unassigned; isomer 2) [Example 105-2, 7-(4-fluorophenyl)-8-(3-methylimidazo[1,2-a]pyridin-6-yl)-2-((tetrahydrofuran-3-yl)methyl)-[1,2,4]triazolo[1,5-c]pyrimidin-5-amine (isomer 2)]
- IC50 (mA2a): 1 nM
- IC50 (hA2a): 0.1 nM
